Target: T1, AhR (Homo sapiens, UniProt P35869)
T1 construct: The HepG2 CYP1A1-Luc cells do express basal luciferase activity that can be increased via potent AhR agonists or decreased via potent AhR antagonists; endogenous in cells
T1 sequence (P35869 11-848): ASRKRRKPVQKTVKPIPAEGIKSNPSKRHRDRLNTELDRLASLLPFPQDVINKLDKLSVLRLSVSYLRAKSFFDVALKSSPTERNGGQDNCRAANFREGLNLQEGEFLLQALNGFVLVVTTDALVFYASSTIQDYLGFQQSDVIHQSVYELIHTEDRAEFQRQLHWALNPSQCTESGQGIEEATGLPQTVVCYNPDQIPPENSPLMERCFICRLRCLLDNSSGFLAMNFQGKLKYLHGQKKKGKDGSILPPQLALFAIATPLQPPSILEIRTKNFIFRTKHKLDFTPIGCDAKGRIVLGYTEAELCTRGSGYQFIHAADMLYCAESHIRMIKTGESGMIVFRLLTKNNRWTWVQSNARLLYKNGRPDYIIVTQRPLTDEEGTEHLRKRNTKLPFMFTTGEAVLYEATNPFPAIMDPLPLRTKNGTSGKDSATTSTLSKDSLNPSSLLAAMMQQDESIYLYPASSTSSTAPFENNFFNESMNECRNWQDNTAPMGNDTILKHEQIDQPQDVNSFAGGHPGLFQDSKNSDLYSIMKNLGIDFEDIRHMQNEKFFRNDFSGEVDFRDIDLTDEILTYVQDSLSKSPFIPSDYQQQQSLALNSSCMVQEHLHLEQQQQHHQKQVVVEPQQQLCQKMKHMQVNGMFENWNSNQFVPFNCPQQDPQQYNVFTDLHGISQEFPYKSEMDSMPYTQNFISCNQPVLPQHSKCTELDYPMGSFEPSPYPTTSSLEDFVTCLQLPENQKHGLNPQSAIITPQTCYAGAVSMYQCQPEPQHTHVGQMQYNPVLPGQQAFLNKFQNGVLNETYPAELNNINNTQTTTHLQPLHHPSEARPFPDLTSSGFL
Assay: AhR direct luciferase reporter assay in HepG2 cells (HepG2 CYP1A1-LUC)
Type: cell-based
Settings: luciferase activity after 18 hours, medium with no exogenous AhR agonist or 10 nM VAF347, read-out: AhR potency (AhR antagonistic potency, IC50 class)
From the text: AhR Direct Luciferase Reporter Assay in HepG2 Cells
A stable cell line (HepG2 CYP1A1-LUC) was used in which part of the promoter region of the human CYP1A1 gene is stably integrated into the genome of human HepG2 hepatocytes (DSZM #ACC 180) in front of a Photinus pyralis Firefly Luciferase gene. A 1210 bp fragment comprising part of the human CYP1A1 promoter was isolated via SacI and BgIII restriction digestion from Lightswitch Clone S714555 (SwitchGearGenomics) and inserted between the SacI and BgIII sites in pGL4.30 (Promega #E8481) in front of the Firefly Luciferase gene. The resulting vector was linearized with NotI, transfected into HepG2 cells (DSMZ #ACC 180) and stably transfected clones selected with 250 μg/ml Hygromycin B. After repetitive rounds of subcloning and testing for robustly regulated luciferase activity after AhR agonist stimulation, a stable clonal HepG2 CYP1A1-Luc cell line was selected.
The HepG2 CYP1A1-Luc cells do express basal luciferase activity that can be increased via potent AhR agonists or decreased via potent AhR antagonists, added to the growth medium of the cells.
In typical reporter assays performed with this cell line, cells are grown in 96-well plates and AhR modulators are titrated into the growth medium in serial dilutions in RPMI-1640 Medium (Sigma #R7509) supplemented with 8,6% fetal calf serum (Sigma #F7524) and containing either no exogenous AhR agonist or 10 nM of the potent AhR agonist VAF347 (Calbiochem #182690). Cells are further cultivated for 18 hours and luciferase activities are determined from extracts of cells in buffers containing D-Luciferine and ATvP using a LUMIstar Optima microplate Luminometer from BMG Labtech.

| Structure (SMILES) | IC50 [nM] |
| --- | --- |
| Cn1ncnc1C(=O)Nc1ccc2cc(-c3cc(F)c(F)cc3C(F)F)[nH]c2n1 [Example 1/28, N-(2-(2-(Difluoromethyl)-4,5-difluorophenyl)-1H-pyrrolo[2,3-b]pyridin-6-yl)-1-methyl-1H-1,2,4-triazole-5-carboxamide] | < 100 |
| CCc1ccc(C(F)(F)F)c(-c2cc3ccc(NC(=O)c4ncnn4C)nc3[nH]2)c1 [Example 1/29, N-(2-(5-Ethyl-2-(trifluoromethyl)phenyl)-1H-pyrrolo[2,3-b]pyridin-6-yl)-1-methyl-1H-1,2,4-triazole-5-carboxamide] | < 100 |
| Cc1cc2cc(-c3ccccc3C(F)(F)F)[nH]c2nc1NC(=O)c1ncnn1C [Example 1/31, 1-Methyl-N-(5-methyl-2-(2-(trifluoromethyl)phenyl)-1H-pyrrolo[2,3-b]pyridin-6-yl)-1H-1,2,4-triazole-5-carboxamide] | 100 to 1000 |
| Cn1ncnc1C(=O)Nc1ccc2cc(-c3cc(Cl)ccc3C(F)F)[nH]c2n1 [Example 1/34, N-(2-(5-Chloro-2-(difluoromethyl)phenyl)-1H-pyrrolo[2,3-b]pyridin-6-yl)-1-methyl-1H-1,2,4-triazole-5-carboxamide] | < 100 |
| Cc1ccc(C(F)F)c(-c2cc3ccc(NC(=O)c4ncnn4C)nc3[nH]2)c1 [Example 1/35, N-(2-(2-(Difluoromethyl)-5-methylphenyl)-1H-pyrrolo[2,3-b]pyridin-6-yl)-1-methyl-1H-1,2,4-triazole-5-carboxamide] | < 100 |
| Cn1ncnc1C(=O)Nc1ccc2cc(-c3cc(F)ccc3C(F)F)[nH]c2n1 [Example 4/9, N-(2-(2-(difluoromethyl)-5-fluorophenyl)-1H-pyrrolo[2,3-b]pyridin-6-yl)-1-methyl-1H-1,2,4-triazole-5-carboxamide] | < 100 |

The next lines start with the values.

| IC50 [nM] | Structure (SMILES) |
| --- | --- |
| < 100 | Cn1ncnc1C(=O)Nc1ccc2cc(-c3cc(Cl)ccc3C(F)(F)F)[nH]c2n1 [Example 1/26, N-(2-(5-Chloro-2-(trifluoromethyl)phenyl)-1H-pyrrolo[2,3-b]pyridin-6-yl)-1-methyl-11H-1,2,4-triazole-5-carboxamide] |
| < 100 | Cn1ncnc1C(=O)Nc1ccc2cc(-c3cc(C4CC4)ccc3C(F)(F)F)[nH]c2n1 [Example 1/27, N-(2-(5-Cyclopropyl-2-(trifluoromethyl)phenyl)-1H-pyrrolo[2,3-b]pyridin-6-yl)-1-methyl-1H-1,2,4-triazole-5-carboxamide] |
| < 100 | Cn1ncnc1C(=O)Nc1ccc2cc(-c3cc(C(F)(F)F)ccc3C(F)(F)F)[nH]c2n1 [Example 1/30, N-(2-(2,5-Bis(trifluoromethyl)phenyl)-1H-pyrrolo[2,3-b]pyridin-6-yl)-1-methyl-1H-1,2,4-triazole-5-carboxamide] |
| < 100 | Cn1ncnc1C(=O)Nc1ccc2cc(-c3ccoc3C(F)F)[nH]c2n1 [Example 1/32, N-(2-(2-(Difluoromethyl)furan-3-yl)-1H-pyrrolo[2,3-b]pyridin-6-yl)-1-methyl-1H-1,2,4-triazole-5-carboxamide] |
| < 100 | Cc1ccc(C(F)(F)F)c(-c2cc3ccc(NC(=O)c4ncnn4C)nc3[nH]2)c1 [Example 1/33, 1-Methyl-N-(2-(5-methyl-2-(trifluoromethyl)phenyl)-1H-pyrrolo[2,3-b]pyridin-6-yl)-1H-1,2,4-triazole-5-carboxamide] |
| 100 to 1000 | Cn1nc(C(N)=O)cc1C(=O)Nc1ccc2cc(-c3ccccc3C(F)(F)F)[nH]c2n1 [Example 2, 1-Methyl-n^5-(2-(2-(trifluoromethyl)phenyl)-1H-pyrrolo[2,3-b]pyridin-6-yl)-1H-pyrazole-3,5-dicarboxamide] |
| 100 to 1000 | Cn1ncnc1C(=O)Nc1ccc2cc(-c3ccccc3C(F)(F)F)n(C)c2n1 [Example 3, 1-Methyl-N-(1-methyl-2-(2-(trifluoromethyl)phenyl)-1H-pyrrolo[2,3-b]pyridin-6-yl)-1H-1,2,4-triazole-5-carboxamide] |
| < 100 | Cn1ncnc1C(=O)Nc1ccc2cc(-c3ccccc3C3CC3)[nH]c2n1 [Example 4, N-(2-(2-Cyclopropylphenyl)-1H-pyrrolo[2,3-b]pyridin-6-yl)-1-methyl-1H-1,2,4-triazole-5-carboxamide] |

Source: patent US10981908B2, “Aryl hydrocarbon receptor (AHR) modulator compounds” (PHENEX PHARMACEUTICALS AG, priority 2017, dated 2021)
